# According to US8835476B2, “Synthesis of novel antimicrobials” (priority 2005, dated 2014):
# Where two headings read alike, the source gives them in different places.
# Columns and labels:
# Type in all cases: cell-based
# [1] = system: S. marcescens clinical isolates; assay: Broth microdilution MIC, clinical isolate strains (NAUTICA); settings: clinical isolates, one table line per isolate; unit assumed
# From the text: (§1) All clinical isolates tested were from The North American Urinary Tract Infection Collaborative Alliance (NAUTICA) which is a UTI surveillance study involving 40 medical centres (30 from the US and 10 from Canada). Each centre submitted up to 50 consecutive outpatient midstream urine isolates. All isolates were deemed significant urinary tract pathogens by individual laboratory criteria and identified to the species level by each laboratory's existing protocol. Isolates were transported to the coordinating laboratory (Health Sciences Centre, Winnipeg, Canada) on charcoal swabs. Only one isolate per patient was accepted. Upon receipt, isolates were cultured by the coordinating laboratory, stocked in skim milk, and stored at −80° C. awaiting reference antibiotic susceptibility testing. Elementary demographic information was also compiled for each isolate. Isolates were selected randomly from the above pool to represent 18 different species of Enterobacteriaceae and non-Enterobacteriaceae. An average of 5 strains of each species were tested for a total of 93 organisms. In addition, 23 reference (ATCC) [both gram negative and gram positive] strains were tested.
# (§2) Susceptibilities to the compounds were determined using the National Committee for Clinical Laboratory Standards (NCCLS) M7-A6 broth microdilution method. […] DMSO controls were incorporated into the panel to mimic the quantity of DMSO used in dissolving some of the compounds at the higher concentrations. Each final panel well volume was 100 μl with a bacterial inoculum of 5×10^5 colony forming units (CFU)/ml. Panels were read following 16 to 20 hours of incubation at 35° C. in ambient air. The minimum inhibitory concentration (MIC) was defined as the lowest concentration of antimicrobial inhibiting visible growth. Quality control (QC) was performed using four ATCC QC organisms that were run with every batch set up to insure reproducibility.
# [2] = system: S. maltophilia clinical isolates; assay: as above; settings: clinical isolates, one table line per isolate; unit assumed
# From the text: as §1, §2
# [3] = system: A. baumanii clinical isolates; assay: as above; settings: clinical isolates, one table line per isolate; unit assumed
# From the text: as §1, §2
# [4] = system: S. liquifaciens clinical isolates; assay: as above; settings: clinical isolates, one table line per isolate; unit assumed
# From the text: as §1, §2
# [5] = system: B. cepacia clinical isolates; assay: as above; settings: clinical isolates, one table line per isolate; unit assumed
# From the text: as §1, §2
# [6] = system: E. aerogenes clinical isolates; assay: as above; settings: clinical isolates, one table line per isolate; unit assumed
# From the text: as §1, §2
# [7] = system: M. morganii clinical isolates; assay: as above; settings: clinical isolates, one table line per isolate; unit assumed
# From the text: as §1, §2
# [8] = system: C. koseril clinical isolates; assay: as above; settings: clinical isolates, one table line per isolate; unit assumed
# From the text: as §1, §2
# P. mirabilis ATCC 29245 = assay: Broth microdilution MIC, ATCC strains; settings: Proteus mirabilis, ATCC29245; P. mirabilis ATCC 29245; read-out: MIC (growth inhibition, microdilution method)
# From the text: as §1, §2
# S. simulans ATCC 27848 = assay: Broth microdilution MIC, ATCC strains; settings: Staphylococcus simulans, ATCC27848, read-out: MIC (growth inhibition, microdilution method)
# From the text: as §1, §2
# E. faecalis ATCC 29212 = assay: Broth microdilution MIC, ATCC strains; settings: Enterococcus faecalis, read-out: MIC (growth inhibition, microdilution method)
# From the text: as §1, §2
# K. oxytoca ATCC 49131 = assay: Broth microdilution MIC, ATCC strains; settings: Klebsiella oxytoca, ATCC49131; K. oxytoca ATCC 49131; read-out: MIC (growth inhibition, microdilution method)
# From the text: as §1, §2
# [9] = system: S. epidermidis ATCC 14990; assay: Broth microdilution MIC, ATCC strains; settings: Staphylococcus epidermidis, ATCC14990; S. epidermidis ATCC 14990; read-out: MIC (growth inhibition, microdilution method)
# From the text: as §1, §2
# E. faecium ATCC 35667 = assay: Broth microdilution MIC, ATCC strains; settings: Enterococcus faecium, ATCC35667, read-out: MIC (growth inhibition, microdilution method)
# From the text: as §1, §2
# E. cloacae ATCC 23355 = assay: Broth microdilution MIC, ATCC strains; settings: Enterobacter cloacae, ATCC23355; E. cloacae ATCC 23355; read-out: MIC (growth inhibition, microdilution method)
# From the text: as §1, §2
# S. warneri ATCC 27836 = assay: Broth microdilution MIC, ATCC strains; settings: Staphylococcus warneri, ATCC27836; S. warneri ATCC 27836; read-out: MIC (growth inhibition, microdilution method)
# From the text: as §1, §2
# [10] = system: Ps. aeruginosa ATCC 27853; assay: Broth microdilution MIC, ATCC strains; settings: Pseudomonas aeruginosa, ATCC27853; Ps. aeruginosa ATCC 27853; read-out: MIC (growth inhibition, microdilution method)
# From the text: as §1, §2
# S. marcescens ATCC 8100 = assay: Broth microdilution MIC, ATCC strains; settings: Serratia marcescens, ATCC8100; S. marcescens ATCC 8100; read-out: MIC (growth inhibition, microdilution method)
# From the text: as §1, §2
# K. pneumoniae ATCC 13883 = assay: Broth microdilution MIC, ATCC strains; settings: Klebsiella pneumoniae, ATCC13883; K. pneumoniae ATCC 13883; read-out: MIC (growth inhibition, microdilution method)
# From the text: as §1, §2
# E. aerogenes ATCC 13048 = assay: Broth microdilution MIC, ATCC strains; settings: Klebsiella aerogenes, ATCC13048; E. aerogenes ATCC 13048; read-out: MIC (growth inhibition, microdilution method)
# From the text: as §1, §2
# [11] = system: S. saprophyticus ATCC 15305; assay: Broth microdilution MIC, ATCC strains; settings: Staphylococcus saprophyticus, ATCC15305; S. saprophyticus ATCC 15305; read-out: MIC (growth inhibition, microdilution method)
# From the text: as §1, §2
# [12] = system: S. liquefaciens ATCC 27592; assay: Broth microdilution MIC, ATCC strains; settings: S. liquefaciens ATCC 27592; read-out: MIC (growth inhibition, microdilution method)
# From the text: as §1, §2
# MRSA ATCC 33591 = assay: Broth microdilution MIC, ATCC strains; settings: Staphylococcus aureus; MRSA ATCC 33591; read-out: MIC (growth inhibition, microdilution method)
# From the text: as §1, §2
# E. coli ATCC 25922 = assay: Broth microdilution MIC, ATCC strains; settings: Escherichia coli, ATCC25922, E. coli ATCC 25922; read-out: MIC (growth inhibition, microdilution method)
# From the text: as §1, §2
# B. cepacia ATCC 25416 = assay: Broth microdilution MIC, ATCC strains; settings: Burkholderia cepacia, ATCC25416; B. cepacia ATCC 25416; read-out: MIC (growth inhibition, microdilution method)
# From the text: as §1, §2
# S. aureus ATCC 29213 = assay: Broth microdilution MIC, ATCC strains; settings: Staphylococcus aureus, ATCC29213, S. aureus ATCC 29213; read-out: MIC (growth inhibition, microdilution method)
# From the text: as §1, §2
# P. vulgaris ATCC 49132 = assay: Broth microdilution MIC, ATCC strains; settings: Proteus vulgaris, ATCC49132; P. vulgaris ATCC 49132; read-out: MIC (growth inhibition, microdilution method)
# From the text: as §1, §2
# A. anitratus ATCC 19606 = assay: Broth microdilution MIC, ATCC strains; settings: Acinetobacter calcoaceticus, ATCC19606; A. anitratus ATCC 19606; read-out: MIC (growth inhibition, microdilution method)
# From the text: as §1, §2
# [13] = system: S. maltophilia ATCC 13637; assay: Broth microdilution MIC, ATCC strains; settings: Stenotrophomonas maltophilia, ATCC13637; S. maltophilia ATCC 13637; read-out: MIC (growth inhibition, microdilution method)
# From the text: as §1, §2
# Pr. stuartii ATCC 33672 = assay: Broth microdilution MIC, ATCC strains; settings: Providencia stuartii, ATCC33672; Pr. stuartii ATCC 33672; read-out: MIC (growth inhibition, microdilution method)
# From the text: as §1, §2
# P. rettgeri CAP = assay: Broth microdilution MIC, reference strains; settings: Providencia rettgeri; P. rettgeri (CAP in Table 1); read-out: MIC (growth inhibition, microdilution method)
# From the text: as §1, §2
# [14] = system: E. cloacae clinical isolates; assay: Broth microdilution MIC, clinical isolate strains (NAUTICA); settings: clinical isolates, one table line per isolate; unit assumed
# From the text: as §1, §2
# [15] = ATCC29212, E. faecalis ATCC 29212
# [16] = ATCC29212, E. faecalis, ATCC number not given
SMILES,"MIC, S. MALTOPHILIA [2]","MIC, A. BAUMANII [3]","MIC, B. CEPACIA [5]",MIC (P. mirabilis ATCC 29245),MIC (S. simulans ATCC 27848),MIC (E. faecalis ATCC 29212; [15]),MIC (E. faecalis ATCC 29212; [16]),MIC (K. oxytoca ATCC 49131),MIC [9],MIC (E. faecium ATCC 35667),MIC (E. cloacae ATCC 23355),MIC (S. warneri ATCC 27836),MIC [10],MIC (S. marcescens ATCC 8100),MIC (K. pneumoniae ATCC 13883),MIC (E. aerogenes ATCC 13048),MIC [11],MIC [12],MIC (MRSA ATCC 33591),MIC (E. coli ATCC 25922),other results
"Cn1nnnc1-c1cc(C(=O)O)sc1C(=O)O [DNM-113, 3-(1-Methyl-1H-tetrazol-5-yl)-thiophene-2,5-dicarboxylic acid]",8 µg/mL,8 µg/mL,8 µg/mL,16 µg/mL,32 µg/mL,8 µg/mL,8 µg/mL,8 µg/mL,8 µg/mL,8 µg/mL,8 µg/mL,16 µg/mL,8 µg/mL,8 µg/mL,8 µg/mL,8 µg/mL,8 µg/mL,8 µg/mL,64 µg/mL,8 µg/mL,"MIC, S. MARCESCENS [1]: 8 µg/mL; MIC, S. LIQUEFACIENS [4]: 8 µg/mL; MIC, E. AEROGENES [6]: 8 µg/mL; MIC, M. MORGANII [7]: 8 µg/mL; MIC, C. KOSERI [8]: 8 µg/mL; MIC (B. cepacia ATCC 25416): 8 µg/mL; MIC (S. aureus ATCC 29213): 32 µg/mL; MIC (P. vulgaris ATCC 49132): 16 µg/mL; MIC (A. anitratus ATCC 19606): 8 µg/mL; MIC [13]: 8 µg/mL; MIC (Pr. stuartii ATCC 33672): 16 µg/mL; MIC (P. rettgeri CAP): 8 µg/mL"
"COC(=O)c1cc(-c2nnnn2C)c(C(=O)OC)s1 [DNM-115, 3-(1-Methyl-1H-tetrazol-5-yl)-thiophene-2,5-dicarboxylic acid dimethyl ester]",8 µg/mL,8 µg/mL,8 µg/mL,16 µg/mL,> 16 µg/mL,8 µg/mL,8 µg/mL,8 µg/mL,8 µg/mL,8 µg/mL,> 16 µg/mL,> 16 µg/mL,8 µg/mL,8 µg/mL,8 µg/mL,8 µg/mL,8 µg/mL,8 µg/mL,> 16 µg/mL,8 µg/mL,"MIC, E. CLOACAE [14]: > 16 µg/mL; MIC (B. cepacia ATCC 25416): 8 µg/mL; MIC (S. aureus ATCC 29213): > 16 µg/mL; MIC (P. vulgaris ATCC 49132): 16 µg/mL; MIC (A. anitratus ATCC 19606): 8 µg/mL; MIC [13]: 8 µg/mL; MIC (Pr. stuartii ATCC 33672): > 16 µg/mL; MIC (P. rettgeri CAP): 16 µg/mL"
